Data taken from article PMC8842630, “Imidazoline- and Benzamidine-Based Trypanosome Alternative Oxidase Inhibitors: Synthesis and Structure–Activity Relationship Studies” (ACS Medicinal Chemistry Letters, 2022).
Where “and” joins values, the source holds several entries; their conditions need not be identical. Equal entries are not always repeated.

Tests used:
[1] = tested on: T. b. brucei strain resistant to pentamidine (B48); assay: microbe, parasite or virus in culture; format: cell-based; details: for EC50: Trypanosoma brucei, read-out: T. b. brucei EC50 B48
in vitro = details: human
[2] = tested on: Bloodstream form trypomastigotes of T. b. brucei strain 427 (WT); assay: Resazurin-based susceptibility assay, wild-type T. b. brucei; format: cell-based; details: for EC50: BSF trypomastigotes strain 427, n = 3; for trypanocidal activity against T. brucei (in words): compounds with short linkers (C-3)
Protocol: . […] This finding was in agreement with previous reports on TAO inhibitors showing that a decrease in efficacy against T. b. brucei growth inhibition was observed as chain length decreased.[8],[9],[23]
(§1) BSF trypanosomes of monomorphic strains Lister 427 (WT), multi-drug-resistant clone B48, and the AQP1-3 KO, which lacks all aquaglyceroporins,[26] were grown in complete HMI-9 with 10% fetal bovine serum, exactly as described, and tested using a standard resazurin-based assay with 23 doubling dilutions for each compound starting at 100 μM.[27] Human embryonic kidney (HEK) cells were cultured and assayed with a resazurin-based assay exactly as described previously.[9] EC50 values were calculated by nonlinear regression with an equation for a sigmoid curve with variable slope (Prism 8.0, GraphPad).

[3] = tested on: T. brucei cell line from which all aquaporins were knocked out (AQP1-3 KO); assay: microbe, parasite or virus in culture; format: cell-based, T. b. brucei; details: for EC50: Trypanosoma brucei, read-out: T. b. brucei EC50 AQP1-3 KO; for RF (resistance factor relative to WT), AQP1-3 KO: EC50 AQP1-3 KO / EC50 WT
Protocol: as §1

[4] = biological target: Purified recombinant trypanosome alternative oxidase (ΔMTS-TAO) (Trypanosoma brucei brucei, UniProt Q26710); assay: Inhibition of ubiquinol oxidase activity of purified ΔMTS-TAO; details: for IC50: rTAO IC50, purified ΔMTS-TAO, n = 3; for inhibition at 40 µM: read-out: rTAO % inhibition at 40 μM; for inhibition at 10 µM: read-out: rTAO % inhibition (compound tested at 10 μM)
[5] = tested on: human embryonic kidney (HEK) cells; details: HEK CC50 / T. b. brucei WT EC50

Purified recombinant trypanosome alternative oxidase (ΔMTS-TAO), sequence (Q26710 26-329, stated change not applied): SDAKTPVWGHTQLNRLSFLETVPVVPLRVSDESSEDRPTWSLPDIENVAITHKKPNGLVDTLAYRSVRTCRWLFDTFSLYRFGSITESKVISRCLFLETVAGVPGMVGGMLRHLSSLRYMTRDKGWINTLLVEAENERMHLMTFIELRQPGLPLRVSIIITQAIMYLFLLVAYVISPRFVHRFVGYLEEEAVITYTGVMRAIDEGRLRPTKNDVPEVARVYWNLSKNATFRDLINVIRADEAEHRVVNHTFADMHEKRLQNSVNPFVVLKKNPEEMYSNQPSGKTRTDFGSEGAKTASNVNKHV

Row | SMILES | EC50 [1] [µM] | CC50 (in vitro) [µM] | EC50 ([2]; Trypanosoma brucei) [µM] | trypanocidal activity against T. brucei (in words) [2] | EC50 [3] [µM] | IC50 [4] | inhibition at 40 µM [4] [%] | SI (selectivity index) = CC50/EC50 (WT) [5] | EC50 [2] [µM] | inhibition at 10 µM [4] [%] | melting point [°C] | RF (resistance factor relative to WT), AQP1-3 KO [3] | TAO inhibition (in words) [4] | fold lower EC50 versus 7d ([2]; T. brucei WT EC50 of 20 versus 7d) [fold] | RF (resistance factor relative to WT), B48 ([1]; EC50 B48 / EC50 WT)
1 | CC(=O)O.Cc1cc(O)cc(O)c1C(=O)NCCCOc1ccc(C(=N)N)cc1 [1a] | > 100 | > 200 | > 100 | inactive | – | – | – | – | – | – | – | – | – | – | –
2 | CC(=O)O.Cc1cc(O)cc(O)c1C(=O)NCCCCCCOc1ccc(C(=N)N)cc1 [1b] | 28 ± 0.5 | > 200 | 15.5 ± 0.6 | – | 17.4 ± 0.9 | > 40 µM | 12.5 | >12.9 | – | – | – | – | – | – | –
3 | CC(=O)O.Cc1cc(O)cc(O)c1C(=O)NCCCCCCCCCCCCOc1ccc(C(=N)N)cc1 [1c] | 3.6 ± 0.1 | 43.5 ± 5.4 | < 4 | – | – | > 40 µM | 39.3 | 13.2 | 3.3 ± 0.2 | – | – | – | – | – | –
4 | Cc1cc(O)cc(O)c1C(=O)NCCCCCCCCCCCCCCOc1ccc(C(=N)N)cc1 [1d] | 28.9 ± 5.2 | > 200 | 18.6 ± 1.1 | – | – | > 40 µM | 31.4 | – | – | – | – | – | – | – | –
5 | CC(=O)O.Cc1cc(O)cc(O)c1C(=O)NCCCCCCCCCCCCOc1ccc(C2=NCCN2)cc1 [2c] | – | 67.2 ± 0.8 | – | – | 2.9 ± 0.4 | > 10 µM | – | 39.1 | – | 10 | – | – | – | – | –
6 | CC(=O)O.Cc1cc(O)cc(O)c1C(=O)NCCCCCCCCCCCCOc1ccc(N=C2NCCN2)cc1 [3c] | – | > 100 | < 4 | – | 3.92 ± 0.03 | 22.5 ± 0.3 µM | – | >36.5 | 2.7 ± 0.4 | 46.3 | 44.5 to 51.1 | – | – | – | –
7 | Cc1cc(O)cc(O)c1C(=O)NCCCOc1ccc(C#N)cc1 [7a] | 50.8 ± 2.7 | > 200 | 37.2 ± 3.4 | poorly active | – | > 40 µM | 28.8 | >5.3 | – | – | – | – | – | – | –
8 | Cc1cc(O)cc(O)c1C(=O)NCCCCCCOc1ccc(C#N)cc1 [7b] | 27.7 ± 2 | > 200 | 30.4 ± 0.4 | – | 30.5 ± 0.7 | 1.52 µM and 1.5 µM | 96.2 | – | – | – | – | – | – | – | –
9 | Cc1cc(O)cc(O)c1C(=O)NCCCCCCCCCCCCOc1ccc(C#N)cc1 [7c] | 15.9 ± 0.7 | 57.1 ± 0.1 | 15.6 ± 0.7 | – | – | > 40 µM | 27.4 | 3.7 | – | – | 81.9 | – | – | – | –
10 | Cc1cc(O)cc(O)c1C(=O)NCCCCCCCCCCCCCCOc1ccc(C#N)cc1 [7d] | 15.7 ± 0.5 | 56.8 ± 0.2 | 14.8 ± 0.5 | – | – | 16.4 ± 0.7 µM | 89.7 | 3.8 | – | – | – | – | – | – | –
11 | Cc1cc(O)cc(O)c1C(=O)NCCCOc1ccc(C(=N)NO)cc1 [8a] | > 100 | > 200 | > 100 | inactive | – | > 40 µM | 14.1 | – | – | – | – | – | – | – | –
12 | Cc1cc(O)cc(O)c1C(=O)NCCCCCCOc1ccc(C(=N)NO)cc1 [8b] | 36 ± 1.8 | 76.8 ± 7.2 | 19.5 ± 1 | – | 21 ± 1 | > 40 µM | -14.9 | 3.9 | – | – | – | – | – | – | –
13 | Cc1cc(O)cc(O)c1C(=O)NCCCCCCCCCCCCOc1ccc(C(=N)NO)cc1 [8c] | 9.1 ± 0.5 | 109 ± 1.6 | 8.4 ± 1.1 | – | – | > 40 µM | 44.8 | 13 | – | – | – | – | – | – | –
14 | Cc1cc(O)cc(O)c1C(=O)NCCCCCCCCCCCCCCOc1ccc(C(=N)NO)cc1 [8d] | 27.1 ± 2.4 | > 200 | 29 ± 2.2 | – | – | > 40 µM | -3.4 | – | – | – | – | – | – | – | –
15 | Cc1cc(O)cc(O)c1C(=O)NCCCCCCCCCCCCOc1ccc([N+](=O)[O-])cc1 [11c] | – | > 100 | 9.5 ± 0.5 | – | 10.2 ± 0.7 | 30 ± 1.5 µM | – | >10.5 | – | 53.8 | 102.3 to 106.3 | – | – | – | –
16 | Cc1cc(O)cc(O)c1C(=O)NCCCCCCCCCCCCOc1ccc(N)cc1 [12c] | – | > 100 | 20.3 ± 1.3 | – | 29.6 ± 2.2 | – | – | >4.9 | – | – | – | 1.5 | – | – | –
17 | Cc1cc(O)cc(O)c1C(=O)NCCCCCCCCCCCCOc1ccc(N=C2N(C(=O)OC(C)(C)C)CCN2C(=O)OC(C)(C)C)cc1 [14c] | – | > 100 | 10.4 ± 0.7 | – | 15.7 ± 0.3 | – | – | >9.6 | – | – | – | 1.5 | – | – | –
18 | C/C(=C\Cc1c(O)c(Cl)c(C)c(C=O)c1O)CC/C=C(\C)[C@@H]1CC(=O)C(C)(C)O1 [ascofuranone, reference compound] | – | – | – | – | – | – | 100 | – | – | – | – | – | – | – | –
19 | Cc1cc(O)c(C(=O)CCCCCCCCCCCCCCCOc2ccc(C#N)cc2)c(O)c1 [compound 20] | – | > 100 | 5.8 ± 0.7 | – | 8.2 ± 0.9 | > 10 µM | – | >17.1 | – | 13.4 | – | – | lack of TAO inhibition | 2.5 | –
20 | Cc1cc(O)cc(OC(=O)CCCCCCCCCCCCCCCOc2ccc(C#N)cc2)c1 [compound 21] | – | > 100 | > 100 | – | > 100 | > 10 µM | – | – | – | 30 | – | – | – | – | –
21 | N=C(N)c1ccc(/N=N/Nc2ccc(C(=N)N)cc2)cc1 [diminazene, reference compound] | 0.107 ± 0.019 | – | 0.095 ± 0.011 | – | – | – | – | – | – | – | – | – | – | – | 1.1
22 | N=C(N)c1ccc(OCCCCCOc2ccc(C(=N)N)cc2)cc1 [pentamidine, reference compound] | 0.208 ± 0.021 | – | 0.004 ± 0.001 | – | 0.046 ± 0.003 | – | – | – | – | – | – | – | – | – | –
